Test results as given in patent publication US8063048B2, “Acetylenyl-pyrazolo-pyrimidine derivatives” (Hoffmann-La Roche Inc., priority 2005, dated 2011).

Row | Compound | melting point [°C]
1 | NS(=O)(=O)c1ccc(C#Cc2cnn3c(C4CC4)cc(-c4ccc(Cl)cc4)nc23)cc1 [Example 63, 4-[5-(4-Chloro-phenyl)-7-cyclopropyl-pyrazolo[1,5-a]pyrimidin-3-ylethynyl]-benzenesulfonamide] | 225 to 228
2 | NS(=O)(=O)c1cnc(C#Cc2cnn3c(C(F)(F)F)cc(-c4ccc(C(F)(F)F)cc4)nc23)s1 [Example 29, 2-[7-Trifluoromethyl-5-(4-trifluoromethyl-phenyl)-pyrazolo[1,5-a]pyrimidin-3-ylethynyl]-thiazole-5-sulfonic acid amide] | 235
3 | CC(C)(C)c1cc(-c2ccc(Cl)cc2)nc2c(C#Cc3ccc(S(N)(=O)=O)s3)cnn12 [Example 307, 5-[7-tert.-Butyl-5-(4-chloro-phenyl)-pyrazolo[1,5-a]pyrimidin-3-ylethynyl]-thiophene-2-sulfonic acid amide] | 253 to 255
4 | Cc1nc(C#Cc2cnn3c(C(F)(F)F)cc(-c4ccc(C(F)(F)F)cc4)nc23)sc1S(=O)(=O)NC(C)(C)CO [Example 53, 4-Methyl-2-[7-trifluoromethyl-5-(4-trifluoromethyl-phenyl)-pyrazolo[1,5-a]pyrimidin-3-ylethynyl]-thiazole-5-sulfonic acid (2-hydroxy-1,1-dimethyl-ethyl)-amide] | 216 to 218
5 | OCc1ccc(C#Cc2cnn3c(C(F)(F)F)cc(-c4ccc(C(F)(F)F)cc4)nc23)cc1 [Example 184, {4-[7-Trifluoromethyl-5-(4-trifluoromethyl-phenyl)-pyrazolo[1,5-a]pyrimidin-3-ylethynyl]-phenyl}-methanol] | 200 to 202
6 | Nc1ccc(C#Cc2cnn3c(C(F)(F)F)cc(-c4ccc(C(F)(F)F)cc4)nc23)nn1 [Example 246, 6-[7-Trifluoromethyl-5-(4-trifluoromethyl-phenyl)-pyrazolo[1,5-a]pyrimidin-3-ylethynyl]-pyridazin-3-ylamine] | 214 to 216
7 | NS(=O)(=O)c1ccc(C#Cc2cnc3c(C(F)(F)F)cc(-c4ccc(C(F)(F)F)cc4)cn23)s1 [Example 193, 5-[8-Trifluoromethyl-6-(4-trifluoromethyl-phenyl)-imidazo[1,2-a]pyridin-3-ylethynyl]-thiophene-2-sulfonic acid amide] | 248 to 250
8 | OCCNc1ccc(C#Cc2cnn3c(C(F)(F)F)cc(-c4ccc(C(F)(F)F)cc4)nc23)cn1 [Example 200, 2-{5-[7-Trifluoromethyl-5-(4-trifluoromethyl-phenyl)-pyrazolo[1,5-a]pyrimidin-3-ylethynyl]-pyridin-2-ylamino}-ethanol] | 202 to 203
9 | CN(C)S(=O)(=O)c1ccc(C#Cc2cnn3c(C(F)(F)F)cc(-c4ccc(C(F)(F)F)cc4)nc23)cc1 [Example 121, N,N-Dimethyl-4-[7-trifluoromethyl-5-(4-trifluoromethyl-phenyl)-pyrazolo[1,5-a]pyrimidin-3-ylethynyl]-benzenesulfonamide] | 226 to 227
10 | CC(C)(CO)NS(=O)(=O)c1cnc(C#Cc2cnn3c(C(F)(F)F)cc(-c4ccc(C(F)(F)F)cc4)nc23)s1 [Example 23, 2-[7-Trifluoromethyl-5-(4-trifluoromethyl-phenyl)-pyrazolo[1,5-a]pyrimidin-3-ylethynyl]-thiazole-5-sulfonic acid (2-hydroxy-1,1-dimethyl-ethyl)-amide] | 252 to 253
11 | NS(=O)(=O)c1ccc(C#Cc2cnc3ccc(-c4ccc(C(F)(F)F)cc4)cn23)s1 [Example 217, 5-[6-(4-Trifluoromethyl-phenyl)-imidazo[1,2-a]pyridin-3-ylethynyl]-thiophene-2-sulfonic acid amide] | 206 to 210
12 | NS(=O)(=O)c1ccc(C#Cc2cnn3c(C(F)(F)F)cc(-c4cccc(C(F)(F)F)c4)nc23)cc1 [Example 113, 4-[7-Trifluoromethyl-5-(3-trifluoromethyl-phenyl)-pyrazolo[1,5-a]pyrimidin-3-ylethynyl]-benzenesulfonamide] | 264
13 | NS(=O)(=O)c1ccc(C#Cc2cnn3c(C(F)(F)F)cc(-c4ccc(Cl)c(Cl)c4)nc23)cc1 [Example 94, 4-[5-(3,4-Dichloro-phenyl)-7-trifluoromethyl-pyrazolo[1,5-a]pyrimidin-3-ylethynyl]-benzenesulfonamide] | 273 to 274
14 | CN(C)CCNS(=O)(=O)c1ccc(C#Cc2cnn3c(C(F)F)cc(-c4ccc(C(F)(F)F)cc4)nc23)cc1 [Example 141, 4-[7-Difluoromethyl-5-(4-trifluoromethyl-phenyl)-pyrazolo[1,5-a]pyrimidin-3-ylethynyl]-N-(2-dimethylamino-ethyl)-benzenesulfonamide] | 157 to 159
15 | O=S(=O)(NCc1ccncc1)c1ccc(C#Cc2cnn3c(C(F)F)cc(-c4ccc(C(F)(F)F)cc4)nc23)s1 [Example 277, 5-[7-Difluoromethyl-5-(4-trifluoromethyl-phenyl)-pyrazolo[1,5-a]pyrimidin-3-ylethynyl]-thiophene-2-sulfonic acid (pyridin-4-ylmethyl)-amide] | 141
16 | O=S(=O)(Nc1cccnc1)c1ccc(C#Cc2cnn3c(C(F)(F)F)cc(-c4ccc(C(F)(F)F)cc4)nc23)s1 [Example 279, 5-[7-Trifluoromethyl-5-(4-trifluoromethyl-phenyl)-pyrazolo[1,5-a]pyrimidin-3-ylethynyl]-thiophene-2-sulfonic acid pyridin-3-ylamide] | 248
17 | Cc1cc(C#Cc2cnn3c(C(F)(F)F)cc(-c4ccc(C(F)(F)F)cc4)nc23)ccn1 [Example 2, 3-(2-Methyl-pyridin-4-ylethynyl)-7-trifluoromethyl-5-(4-trifluoromethyl-phenyl)-pyrazolo[1,5-a]pyrimidine] | 206
18 | Cc1cc(-c2ccc(Cl)cc2)nc2c(C#Cc3ccc(S(N)(=O)=O)cc3)cnn12 [Example 292, 4-[5-(4-Chloro-phenyl)-7-methyl-pyrazolo[1,5-a]pyrimidin-3-ylethynyl]-benzenesulfonamide] | 230 to 233
19 | Nc1ccc(C#Cc2cnn3c(C(F)F)cc(-c4ccc(C(F)(F)F)cc4)nc23)cn1 [Example 188, 5-[7-Difluoromethyl-5-(4-trifluoromethyl-phenyl)-pyrazolo[1,5-a]pyrimidin-3-ylethynyl]-pyridin-2-ylamine] | 216
20 | Cc1cc(-c2cc(C(F)(F)F)n3ncc(C#Cc4ccc(S(=O)(=O)NCCN(C)C)s4)c3n2)ccc1Cl [Example 257, 5-[5-(4-Chloro-3-methyl-phenyl)-7-trifluoromethyl-pyrazolo[1,5-a]pyrimidin-3-ylethynyl]-thiophene-2-sulfonic acid (2-dimethylamino-ethyl)-amide] | 179
21 | CCc1cc(-c2ccc(Cl)cc2)nc2c(C#Cc3ccc(N)nc3)cnn12 [Example 304, 5-[5-(4-Chloro-phenyl)-7-ethyl-pyrazolo[1,5-a]pyrimidin-3-ylethynyl]-pyridin-2-ylamine] | 205 to 206
22 | Cc1cc(-c2cc(C(F)(F)F)n3ncc(C#Cc4ccc(S(=O)(=O)NC(C)(C)C)s4)c3n2)ccc1Cl [Example 115, 5-[5-(4-Chloro-3-methyl-phenyl)-7-trifluoromethyl-pyrazolo[1,5-a]pyrimidin-3-ylethynyl]-thiophene-2-sulfonic acid tert-butylamide] | 244
23 | CC(CO)(CO)NS(=O)(=O)c1cccc(C#Cc2cnn3c(C(F)F)cc(-c4ccc(C(F)(F)F)cc4)nc23)c1 [Example 33, 3-[7-Difluoromethyl-5-(4-trifluoromethyl-phenyl)-pyrazolo[1,5-a]pyrimidin-3-ylethynyl]-N-(2-hydroxy-1-hydroxymethyl-1-methyl-ethyl)-benzene sulfonamide] | 172 to 174
24 | FC(F)(F)c1ccc(-c2cc(C(F)(F)F)n3ncc(C#Cc4cncnc4)c3n2)cc1 [Example 44, 3-Pyrimidin-5-ylethynyl-7-trifluoromethyl-5-(4-trifluoromethyl-phenyl)-pyrazolo[1,5-a]pyrimidine] | 175
25 | COc1ncc(S(=O)(=O)NC(C)(C)CO)cc1C#Cc1cnn2c(C(F)(F)F)cc(-c3ccc(C(F)(F)F)cc3)nc12 [Example 18, 6-Methoxy-5-[7-trifluoromethyl-5-(4-trifluoromethyl-phenyl)-pyrazolo[1,5-a]pyrimidin-3-ylethynyl]-pyridine-3-sulfonic acid (2-hydroxy-1,1-dimethyl-ethyl)-amide] | 209 to 210
26 | NS(=O)(=O)c1ccc(C#Cc2cnn3c(C(F)(F)F)cc(-c4cccc(C(F)(F)F)c4)nc23)s1 [Example 119, 5-[7-Trifluoromethyl-5-(3-trifluoromethyl-phenyl)-pyrazolo[1,5-a]pyrimidin-3-ylethynyl]-thiophene-2-sulfonic acid amide] | 250
27 | CC(C)(O)c1cc(-c2ccc(Cl)cc2)nc2c(C#Cc3ccc(S(N)(=O)=O)s3)cnn12 [Example 154, 5-[5-(4-Chloro-phenyl)-7-(1-hydroxy-1-methyl-ethyl)-pyrazolo[1,5-a]pyrimidin-3-ylethynyl]-thiophene-2-sulfonic acid amide] | 206 to 208
28 | COc1ccc(C#Cc2cnn3c(C(F)F)cc(-c4ccc(C(F)(F)F)cc4)nc23)cc1S(=O)(=O)NC(C)(C)CO [Example 43, 5-[7-Difluoromethyl-5-(4-trifluoromethyl-phenyl)-pyrazolo[1,5-a]pyrimidin-3-ylethynyl]-N-(2-hydroxy-1,1-dimethyl-ethyl)-2-methoxy-benzenesulfonamide] | 178 to 180
29 | CN(C)CCNS(=O)(=O)c1ccc(C#Cc2cnn3c(C(F)(F)F)cc(-c4ccc(C(F)(F)F)cc4)nc23)cc1 [Example 126, N-(2-Dimethylamino-ethyl)-4-[7-trifluoromethyl-5-(4-trifluoromethyl-phenyl)-pyrazolo[1,5-a]pyrimidin-3-ylethynyl]-benzenesulfonamide] | 193 to 194
30 | O=S(=O)(NC(CO)(CO)CO)c1cncc(C#Cc2cnn3c(C(F)(F)F)cc(-c4ccc(C(F)(F)F)cc4)nc23)c1 [Example 22, 5-[7-Trifluoromethyl-5-(4-trifluoromethyl-phenyl)-pyrazolo[1,5-a]pyrimidin-3-ylethynyl]-pyridine-3-sulfonic acid (2-hydroxy-1,1-bis-hydroxymethyl-ethyl)-amide] | 230 to 232
